From the NIST ThermoML archive (doi:10.1021/je400917j)
Values joined by “and” are separate entries in the source; they are usually repeats but may differ in a detail not shown here. Equal values may be shown once. ± gives the expanded uncertainty stated by the source.

Tests used:
[1] = 101 kPa, Liquid; for mass density: Vibrating tube method
[2] = xn = mol fraction of the nth substance listed; details: 101 kPa, Liquid; for mass density: Vibrating tube method

SMILES | viscosity ([1]; 298.15 K) [mPa·s] | mass density ([1]; 298.15 K) [kg/m3] | viscosity ([1]; 303.15 K) [mPa·s] | mass density ([1]; 303.15 K) [kg/m3] | viscosity ([1]; 308.15 K) | mass density ([1]; 308.15 K) [kg/m3] | viscosity ([1]; 313.15 K) [mPa·s] | mass density ([1]; 313.15 K) [kg/m3] | also measured
CCCCCC(C)O (stereo not drawn) [2-heptanol] | 5.3 ± 0.15 | 813.2 ± 0.2 | 4.48 ± 0.13 | 809.5 ± 0.2 | 3.68 ± 0.11 mPa·s | 805.7 ± 0.2 | 2.96 ± 0.086 | 801.5 ± 0.2 | –
CCCCC(C)O (stereo not drawn) [2-hexanol] | 4.1 ± 0.15 | 810.1 ± 0.2 | 3.41 ± 0.12 | 806.1 ± 0.2 | 2.82 ± 0.1 mPa·s | 802.1 ± 0.2 | 2.22 ± 0.083 | 798 ± 0.2 | –
CC(=O)N(C)C [N,N-dimethylethanamide] | 0.94 ± 0.03 | 936.5 ± 0.2 | 0.87 ± 0.03 | 932 ± 0.2 | 0.82 ± 0.03 mPa·s and 0.8 ± 0.03 mPa·s | 927.8 ± 0.2 | 0.75 ± 0.02 | 923.5 ± 0.2 | –
CC(=O)N(C)C [N,N-dimethylethanamide] + CCCC(C)O | – | – | – | – | – | – | – | – | mass density ([2]; 298.15 K, x1 = 1): 936.5 ± 0.2 kg/m3; viscosity ([2]; 298.15 K, x1 = 1): 0.94 ± 0.029 mPa·s; mass density ([2]; 303.15 K, x1 = 1): 932 ± 0.2 kg/m3; viscosity ([2]; 303.15 K, x1 = 1): 0.87 ± 0.027 mPa·s; mass density ([2]; 308.15 K, x1 = 1): 927.8 ± 0.2 kg/m3; viscosity ([2]; 308.15 K, x1 = 1): 0.8 ± 0.025 mPa·s; mass density ([2]; 313.15 K, x1 = 1): 923.5 ± 0.2 kg/m3; viscosity ([2]; 313.15 K, x1 = 1): 0.75 ± 0.023 mPa·s
CC(=O)N(C)C [N,N-dimethylethanamide] + CCCCC(C)O | – | – | – | – | – | – | – | – | mass density ([2]; 298.15 K, x1 = 1): 936.5 ± 0.2 kg/m3; viscosity ([2]; 298.15 K, x1 = 1): 0.94 ± 0.037 mPa·s; mass density ([2]; 303.15 K, x1 = 1): 932 ± 0.2 kg/m3; viscosity ([2]; 303.15 K, x1 = 1): 0.87 ± 0.035 mPa·s; mass density ([2]; 308.15 K, x1 = 1): 927.8 ± 0.2 kg/m3; viscosity ([2]; 308.15 K, x1 = 1): 0.8 ± 0.032 mPa·s; mass density ([2]; 313.15 K, x1 = 1): 923.5 ± 0.2 kg/m3; viscosity ([2]; 313.15 K, x1 = 1): 0.75 ± 0.031 mPa·s
CC(=O)N(C)C [N,N-dimethylethanamide] + CCCCCC(C)O | – | – | – | – | – | – | – | – | mass density ([2]; 298.15 K, x1 = 1): 936.5 ± 0.2 kg/m3; viscosity ([2]; 298.15 K, x1 = 1): 0.94 ± 0.029 mPa·s; mass density ([2]; 303.15 K, x1 = 1): 932 ± 0.2 kg/m3; viscosity ([2]; 303.15 K, x1 = 1): 0.87 ± 0.027 mPa·s; mass density ([2]; 308.15 K, x1 = 1): 927.8 ± 0.2 kg/m3; viscosity ([2]; 308.15 K, x1 = 1): 0.8 ± 0.025 mPa·s; mass density ([2]; 313.15 K, x1 = 1): 923.5 ± 0.2 kg/m3; viscosity ([2]; 313.15 K, x1 = 1): 0.75 ± 0.023 mPa·s
CCC(C)O (stereo not drawn) [butan-2-ol] | 3.1 ± 0.09 | 803 ± 0.2 | 2.53 ± 0.07 | 798.9 ± 0.2 | 2.13 ± 0.06 mPa·s | 795 ± 0.2 | 1.8 ± 0.05 | 790.2 ± 0.2 | –
CCC(C)O (stereo not drawn) [butan-2-ol] + CC(=O)N(C)C | – | – | – | – | – | – | – | – | mass density ([2]; 298.15 K, x2 = 0): 803 ± 0.2 kg/m3; viscosity ([2]; 298.15 K, x2 = 0): 3.1 ± 0.09 mPa·s; mass density ([2]; 303.15 K, x2 = 0): 798.9 ± 0.2 kg/m3; viscosity ([2]; 303.15 K, x2 = 0): 2.53 ± 0.07 mPa·s; mass density ([2]; 308.15 K, x2 = 0): 795 ± 0.2 kg/m3; viscosity ([2]; 308.15 K, x2 = 0): 2.13 ± 0.06 mPa·s; mass density ([2]; 313.15 K, x2 = 0): 790.2 ± 0.2 kg/m3; viscosity ([2]; 313.15 K, x2 = 0): 1.8 ± 0.05 mPa·s
CCCC(C)O (stereo not drawn) [pentan-2-ol] | 3.5 ± 0.1 | 805.4 ± 0.2 | 2.83 ± 0.082 | 800.9 ± 0.2 | 2.35 ± 0.069 mPa·s | 796.9 ± 0.2 | 1.98 ± 0.058 | 792.6 ± 0.2 | –
CC(C)O [propan-2-ol] | 2.05 ± 0.06 | 781.1 ± 0.2 | 1.79 ± 0.05 | 776.8 ± 0.2 | 1.56 ± 0.05 mPa·s | 772.4 ± 0.2 | 1.35 ± 0.04 | 767.8 ± 0.2 | –
CC(C)O [propan-2-ol] + CC(=O)N(C)C | – | – | – | – | – | – | – | – | mass density ([2]; 298.15 K, x2 = 0): 781.1 ± 0.2 kg/m3; viscosity ([2]; 298.15 K, x2 = 0): 2.05 ± 0.06 mPa·s; mass density ([2]; 303.15 K, x2 = 0): 776.8 ± 0.2 kg/m3; viscosity ([2]; 303.15 K, x2 = 0): 1.79 ± 0.05 mPa·s; mass density ([2]; 308.15 K, x2 = 0): 772.4 ± 0.2 kg/m3; viscosity ([2]; 308.15 K, x2 = 0): 1.56 ± 0.05 mPa·s; mass density ([2]; 313.15 K, x2 = 0): 767.8 ± 0.2 kg/m3; viscosity ([2]; 313.15 K, x2 = 0): 1.35 ± 0.04 mPa·s
